Assay [1] has as its target ATP-dependent translocase ABCB1 (Homo sapiens, UniProt P08183). Description: Ray2010 Assay 74. An excerpt: (§1) Table S2 shows raw Ki data for the current study combined with data collected from the literature for the ten additional compounds.
A further assay deals with Glutamate receptor 4 (Homo sapiens, UniProt P48058). Description: Ray2010 Assay 74.
From the text: as §1

In assay [2] the target is Gamma-aminobutyric acid receptor subunit beta-1 (Homo sapiens, UniProt P18505). Description: Ray2010 Assay 74.
From the text: as §1

The target of assay [3] is T1, 5-hydroxytryptamine receptor 2C (Homo sapiens, UniProt P28335).
T1 sequence (P28335 whole entry): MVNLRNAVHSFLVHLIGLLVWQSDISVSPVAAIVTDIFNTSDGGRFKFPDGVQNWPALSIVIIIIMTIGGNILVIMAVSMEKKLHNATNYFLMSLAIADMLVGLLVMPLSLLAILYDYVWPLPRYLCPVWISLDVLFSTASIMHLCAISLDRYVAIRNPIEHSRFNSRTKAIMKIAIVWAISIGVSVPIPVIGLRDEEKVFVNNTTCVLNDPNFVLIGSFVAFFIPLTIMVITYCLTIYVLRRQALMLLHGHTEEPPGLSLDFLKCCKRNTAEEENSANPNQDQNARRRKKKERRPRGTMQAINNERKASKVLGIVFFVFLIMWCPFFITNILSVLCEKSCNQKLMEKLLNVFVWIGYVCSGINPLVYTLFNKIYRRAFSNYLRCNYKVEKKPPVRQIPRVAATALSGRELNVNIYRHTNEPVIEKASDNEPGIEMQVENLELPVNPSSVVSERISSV
The assay is described as follows: Ray2010 Assay 74.
From the text: as §1

The target of assay [4] is Muscarinic acetylcholine receptor (UniProt F1N5C5). Description: Ray2010 Assay 45. The text has this: pirenzepine hippocampus .
Assay [5] has as its target Muscarinic acetylcholine receptor M2 (Bos taurus, UniProt P41985). The assay is described as follows: Ray2010 Assay 49. The text has this:
QBN cortex .

The next assay concerns the target Mu-type opioid receptor (Bos taurus, UniProt P79350). The assay is described as follows: Ray2010 Assay 55. The text has this: DAGO cortex .
Assay [6] concerns the target Neuronal acetylcholine receptor subunit alpha-2/beta-4 (Homo sapiens, UniProt P30926+Q15822). Description: Ray2010 Assay 74.
From the text: as §1

The target of assay [7] is Metabotropic glutamate receptor 5 (Homo sapiens, UniProt P41594). The assay is described as follows: Ray2010 Assay 74.
From the text: as §1

Assay [8] deals with Metabotropic glutamate receptor 1 (Homo sapiens, UniProt Q13255). Description: Ray2010 Assay 74.
From the text: as §1

The target in assay [9] is T2, Gamma-aminobutyric acid receptor subunit alpha-1/Adenosine receptor A1 (Homo sapiens, UniProt P14867+P30542).
T2 sequence (P30542 whole entry): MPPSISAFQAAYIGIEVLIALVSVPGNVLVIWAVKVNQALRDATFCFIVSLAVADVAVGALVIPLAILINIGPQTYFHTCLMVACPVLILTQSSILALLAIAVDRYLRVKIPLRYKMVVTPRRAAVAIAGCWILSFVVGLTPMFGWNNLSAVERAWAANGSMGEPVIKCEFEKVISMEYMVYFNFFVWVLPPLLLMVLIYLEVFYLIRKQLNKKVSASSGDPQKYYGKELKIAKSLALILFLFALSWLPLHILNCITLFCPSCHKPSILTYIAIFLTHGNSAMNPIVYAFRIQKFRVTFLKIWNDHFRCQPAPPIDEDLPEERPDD
T2 sequence (P14867 whole entry): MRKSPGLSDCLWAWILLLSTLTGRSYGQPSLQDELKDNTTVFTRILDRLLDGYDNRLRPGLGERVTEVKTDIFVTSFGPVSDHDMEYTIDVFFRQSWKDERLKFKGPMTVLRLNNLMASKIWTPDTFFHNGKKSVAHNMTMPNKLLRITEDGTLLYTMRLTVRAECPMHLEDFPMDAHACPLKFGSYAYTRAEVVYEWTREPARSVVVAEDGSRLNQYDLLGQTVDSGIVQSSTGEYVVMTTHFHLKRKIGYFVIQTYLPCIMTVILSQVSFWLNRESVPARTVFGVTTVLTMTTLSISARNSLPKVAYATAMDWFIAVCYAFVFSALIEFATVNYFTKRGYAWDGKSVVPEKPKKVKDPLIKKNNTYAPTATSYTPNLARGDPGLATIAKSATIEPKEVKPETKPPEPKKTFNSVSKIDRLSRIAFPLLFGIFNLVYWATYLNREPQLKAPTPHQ
The assay is described as follows: Ray2010 Assay 74.
From the text: as §1

The target in assay [10] is T3, Muscarinic acetylcholine receptor M4 (Homo sapiens, UniProt P08173).
T3 sequence (P08173 whole entry): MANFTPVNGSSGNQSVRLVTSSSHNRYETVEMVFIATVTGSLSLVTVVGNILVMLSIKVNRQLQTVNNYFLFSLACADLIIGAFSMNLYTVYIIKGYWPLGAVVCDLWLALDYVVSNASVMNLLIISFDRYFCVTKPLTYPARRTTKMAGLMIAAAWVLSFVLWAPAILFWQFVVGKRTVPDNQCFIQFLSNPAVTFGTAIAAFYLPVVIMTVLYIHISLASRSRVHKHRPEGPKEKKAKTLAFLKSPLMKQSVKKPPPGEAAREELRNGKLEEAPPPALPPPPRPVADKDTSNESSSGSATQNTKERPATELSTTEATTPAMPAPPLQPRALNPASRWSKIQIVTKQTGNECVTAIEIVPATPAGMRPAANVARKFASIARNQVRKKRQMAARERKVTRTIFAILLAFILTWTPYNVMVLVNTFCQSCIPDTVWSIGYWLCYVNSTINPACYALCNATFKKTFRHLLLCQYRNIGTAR
Description: Ray2010 Assay 74.
From the text: as §1

Assay [11] has as its target Neuronal acetylcholine receptor subunit alpha-4/beta-4 (Homo sapiens, UniProt P30926+P43681). Description: Ray2010 Assay 74.
From the text: as §1

Assay [12] deals with Metabotropic glutamate receptor 2 (Homo sapiens, UniProt Q14416). Description: Ray2010 Assay 74.
From the text: as §1

The target of assay [13] is Metabotropic glutamate receptor 4 (Homo sapiens, UniProt Q14833). The assay is described as follows: Ray2010 Assay 74.
From the text: as §1

Assay [14] deals with Neuronal acetylcholine receptor subunit alpha-2/beta-2 (Homo sapiens, UniProt P17787+Q15822). Description: Ray2010 Assay 74.
From the text: as §1

Assay [15] addresses Neuronal acetylcholine receptor subunit alpha-3/beta-2 (Homo sapiens, UniProt P17787+P32297). Description: Ray2010 Assay 74.
From the text: as §1

Assay [16] addresses Neuronal acetylcholine receptor subunit alpha-4/beta-2 (Mus musculus, UniProt O70174+Q9ERK7). The assay is described as follows: Ray2010 Assay 74.
From the text: as §1

The target in assay [17] is Neuronal acetylcholine receptor subunit alpha-4/beta-2 (Homo sapiens, UniProt P17787+P43681). Description: Ray2010 Assay 74.
From the text: as §1

From BindingDB's records for PubMed 20126400 (University of Oklahoma, 2010) come the findings set out here.

One may read the Ki as the equilibrium dissociation constant of an inhibitor or competing ligand from its target. High values mean a looser hold on the target, low ones a stronger hold on the target.

Values joined by “and” are separate entries in the source; they are usually repeats but may differ in a detail not shown here. Equal entries are not always repeated. A value given as a limit tells only on which side of the number the result lay.

Sequence of Neuronal acetylcholine receptor subunit alpha-2/beta-4 (Q15822 whole entry): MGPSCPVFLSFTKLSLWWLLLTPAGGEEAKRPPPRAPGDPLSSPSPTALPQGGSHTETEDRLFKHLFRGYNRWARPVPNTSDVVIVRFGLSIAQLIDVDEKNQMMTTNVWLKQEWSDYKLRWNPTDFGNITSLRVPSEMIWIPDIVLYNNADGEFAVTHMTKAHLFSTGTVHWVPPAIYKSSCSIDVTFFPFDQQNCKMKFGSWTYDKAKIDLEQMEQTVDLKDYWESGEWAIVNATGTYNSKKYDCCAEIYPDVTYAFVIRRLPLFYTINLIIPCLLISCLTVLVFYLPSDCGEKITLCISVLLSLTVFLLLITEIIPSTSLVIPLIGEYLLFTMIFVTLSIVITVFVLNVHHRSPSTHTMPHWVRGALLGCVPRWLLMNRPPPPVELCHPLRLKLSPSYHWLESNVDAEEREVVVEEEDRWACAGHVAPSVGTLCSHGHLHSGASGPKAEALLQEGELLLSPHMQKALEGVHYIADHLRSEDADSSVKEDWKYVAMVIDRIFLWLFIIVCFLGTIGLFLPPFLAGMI
Sequence of Neuronal acetylcholine receptor subunit alpha-2/beta-4 (P30926 whole entry): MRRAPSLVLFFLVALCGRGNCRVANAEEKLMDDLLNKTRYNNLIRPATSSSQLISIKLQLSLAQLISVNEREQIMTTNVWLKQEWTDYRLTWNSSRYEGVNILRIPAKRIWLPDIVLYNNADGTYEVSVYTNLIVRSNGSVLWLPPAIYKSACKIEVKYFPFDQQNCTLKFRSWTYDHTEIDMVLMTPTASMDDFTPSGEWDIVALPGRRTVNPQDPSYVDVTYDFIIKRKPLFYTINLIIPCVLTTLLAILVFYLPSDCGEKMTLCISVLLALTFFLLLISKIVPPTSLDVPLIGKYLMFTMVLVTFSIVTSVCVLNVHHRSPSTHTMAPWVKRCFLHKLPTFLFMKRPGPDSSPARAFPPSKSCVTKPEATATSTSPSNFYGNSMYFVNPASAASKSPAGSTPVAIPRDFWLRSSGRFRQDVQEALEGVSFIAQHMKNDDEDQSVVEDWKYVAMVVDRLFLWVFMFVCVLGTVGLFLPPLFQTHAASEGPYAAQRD
Sequence of Mu-type opioid receptor (P79350 whole entry): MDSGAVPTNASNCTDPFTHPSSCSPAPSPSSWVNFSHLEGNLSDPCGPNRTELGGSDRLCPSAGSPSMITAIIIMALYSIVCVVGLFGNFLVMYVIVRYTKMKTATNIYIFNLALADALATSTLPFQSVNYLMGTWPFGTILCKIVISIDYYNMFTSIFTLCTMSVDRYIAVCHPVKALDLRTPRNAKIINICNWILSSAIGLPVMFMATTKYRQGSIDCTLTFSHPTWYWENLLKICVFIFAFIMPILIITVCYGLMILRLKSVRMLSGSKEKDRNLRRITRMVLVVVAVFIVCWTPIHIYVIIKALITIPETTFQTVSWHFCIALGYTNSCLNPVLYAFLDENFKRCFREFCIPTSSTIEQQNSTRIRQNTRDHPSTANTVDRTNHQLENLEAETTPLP
Sequence of ATP-dependent translocase ABCB1 (P08183 whole entry): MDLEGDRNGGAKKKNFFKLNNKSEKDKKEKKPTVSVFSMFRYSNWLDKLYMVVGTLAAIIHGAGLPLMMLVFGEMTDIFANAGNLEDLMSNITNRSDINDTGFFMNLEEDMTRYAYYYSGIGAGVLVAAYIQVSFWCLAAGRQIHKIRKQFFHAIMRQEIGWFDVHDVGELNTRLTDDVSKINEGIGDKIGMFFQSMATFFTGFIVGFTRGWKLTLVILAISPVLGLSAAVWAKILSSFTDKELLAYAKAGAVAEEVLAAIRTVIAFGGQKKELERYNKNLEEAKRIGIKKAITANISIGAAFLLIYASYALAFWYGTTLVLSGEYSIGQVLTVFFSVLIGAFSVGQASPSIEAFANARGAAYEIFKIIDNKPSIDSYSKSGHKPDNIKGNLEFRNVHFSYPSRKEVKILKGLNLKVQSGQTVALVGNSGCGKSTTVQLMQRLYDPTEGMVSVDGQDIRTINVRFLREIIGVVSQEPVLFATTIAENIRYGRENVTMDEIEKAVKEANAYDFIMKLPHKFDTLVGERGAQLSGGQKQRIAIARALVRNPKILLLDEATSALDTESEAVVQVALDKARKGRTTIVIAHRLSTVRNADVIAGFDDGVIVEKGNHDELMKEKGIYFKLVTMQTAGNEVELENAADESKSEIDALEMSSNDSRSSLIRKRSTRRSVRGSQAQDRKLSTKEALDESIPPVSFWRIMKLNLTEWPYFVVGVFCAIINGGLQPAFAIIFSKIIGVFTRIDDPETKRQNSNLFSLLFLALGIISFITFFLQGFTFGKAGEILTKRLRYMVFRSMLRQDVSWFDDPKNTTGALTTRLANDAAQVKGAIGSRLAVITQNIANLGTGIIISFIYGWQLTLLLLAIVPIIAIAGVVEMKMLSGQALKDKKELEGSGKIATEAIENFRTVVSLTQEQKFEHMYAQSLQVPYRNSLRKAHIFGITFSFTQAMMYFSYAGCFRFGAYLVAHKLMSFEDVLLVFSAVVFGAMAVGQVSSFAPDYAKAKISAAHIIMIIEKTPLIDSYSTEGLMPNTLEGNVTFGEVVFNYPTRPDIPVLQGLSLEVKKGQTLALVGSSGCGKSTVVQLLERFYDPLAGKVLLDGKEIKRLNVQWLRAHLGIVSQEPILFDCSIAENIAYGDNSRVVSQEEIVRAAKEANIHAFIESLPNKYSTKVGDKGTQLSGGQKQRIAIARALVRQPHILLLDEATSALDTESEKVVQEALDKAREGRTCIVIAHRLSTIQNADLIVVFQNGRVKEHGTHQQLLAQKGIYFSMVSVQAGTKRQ
Sequence of Glutamate receptor 4 (P48058 whole entry): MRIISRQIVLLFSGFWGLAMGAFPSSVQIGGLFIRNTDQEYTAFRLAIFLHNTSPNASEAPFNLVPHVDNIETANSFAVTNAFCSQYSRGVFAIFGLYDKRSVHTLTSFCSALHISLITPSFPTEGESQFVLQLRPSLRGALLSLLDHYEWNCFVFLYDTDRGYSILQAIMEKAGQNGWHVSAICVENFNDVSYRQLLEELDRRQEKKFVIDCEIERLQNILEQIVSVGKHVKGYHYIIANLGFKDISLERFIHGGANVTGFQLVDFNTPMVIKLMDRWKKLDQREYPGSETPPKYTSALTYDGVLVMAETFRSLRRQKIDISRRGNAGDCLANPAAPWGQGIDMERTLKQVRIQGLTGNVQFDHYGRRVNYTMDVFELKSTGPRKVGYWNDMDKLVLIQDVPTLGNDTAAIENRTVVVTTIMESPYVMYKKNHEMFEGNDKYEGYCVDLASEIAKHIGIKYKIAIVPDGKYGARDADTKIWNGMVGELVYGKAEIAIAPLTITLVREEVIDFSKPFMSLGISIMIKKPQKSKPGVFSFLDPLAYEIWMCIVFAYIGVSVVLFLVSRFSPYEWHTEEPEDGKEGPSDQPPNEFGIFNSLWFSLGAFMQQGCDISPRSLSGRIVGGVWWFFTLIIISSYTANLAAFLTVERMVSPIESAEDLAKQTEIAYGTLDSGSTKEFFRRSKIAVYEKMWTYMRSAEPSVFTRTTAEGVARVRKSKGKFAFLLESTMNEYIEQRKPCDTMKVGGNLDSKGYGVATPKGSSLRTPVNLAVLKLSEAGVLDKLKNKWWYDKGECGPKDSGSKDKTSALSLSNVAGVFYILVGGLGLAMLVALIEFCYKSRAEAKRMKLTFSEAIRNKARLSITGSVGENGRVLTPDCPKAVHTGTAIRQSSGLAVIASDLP
Sequence of Neuronal acetylcholine receptor subunit alpha-2/beta-2 (P17787 whole entry): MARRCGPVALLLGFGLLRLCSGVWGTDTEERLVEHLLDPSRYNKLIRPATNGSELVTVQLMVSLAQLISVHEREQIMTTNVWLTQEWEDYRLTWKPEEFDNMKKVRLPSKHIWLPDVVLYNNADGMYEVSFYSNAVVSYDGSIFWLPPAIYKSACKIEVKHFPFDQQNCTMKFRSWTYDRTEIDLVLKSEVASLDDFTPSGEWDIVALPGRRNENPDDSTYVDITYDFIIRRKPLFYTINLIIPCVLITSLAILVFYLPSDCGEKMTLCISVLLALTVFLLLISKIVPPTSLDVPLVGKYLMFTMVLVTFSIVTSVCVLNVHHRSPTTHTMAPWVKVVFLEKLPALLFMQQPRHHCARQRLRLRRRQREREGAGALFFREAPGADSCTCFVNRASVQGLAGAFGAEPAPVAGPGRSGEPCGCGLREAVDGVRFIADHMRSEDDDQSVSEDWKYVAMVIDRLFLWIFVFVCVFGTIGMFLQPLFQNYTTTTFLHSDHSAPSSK
Sequence of Neuronal acetylcholine receptor subunit alpha-2/beta-2 (Q15822 whole entry): as the sequence (Q15822 whole entry) above
Sequence of Neuronal acetylcholine receptor subunit alpha-3/beta-2 (P17787 whole entry): as the sequence (P17787 whole entry) above
Sequence of Neuronal acetylcholine receptor subunit alpha-3/beta-2 (P32297 whole entry): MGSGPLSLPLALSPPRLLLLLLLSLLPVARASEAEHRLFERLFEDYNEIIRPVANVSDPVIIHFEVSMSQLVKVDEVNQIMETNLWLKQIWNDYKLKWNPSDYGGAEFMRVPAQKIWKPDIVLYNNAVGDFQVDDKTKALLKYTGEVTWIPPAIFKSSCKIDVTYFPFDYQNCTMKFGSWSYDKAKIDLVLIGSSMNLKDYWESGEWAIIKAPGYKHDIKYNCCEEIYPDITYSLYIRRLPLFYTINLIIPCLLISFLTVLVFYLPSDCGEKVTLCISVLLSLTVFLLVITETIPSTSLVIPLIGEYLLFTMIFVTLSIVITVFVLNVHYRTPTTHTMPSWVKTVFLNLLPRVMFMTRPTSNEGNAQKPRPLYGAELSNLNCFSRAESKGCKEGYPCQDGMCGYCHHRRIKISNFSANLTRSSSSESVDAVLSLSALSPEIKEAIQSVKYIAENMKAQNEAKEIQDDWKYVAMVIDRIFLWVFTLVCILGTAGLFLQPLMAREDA

The compound `COc1cc(CC(C)N)cc(OC)c1OC` (configuration not stated) gave a Ki in assay [1] of more than 10 µM.

In the case of `CC[C@H]1C[C@@H]2C[C@H]3c4[nH]c5ccc(OC)cc5c4CCN(C2)[C@@H]13`, the Ki is more than 10 µM at Glutamate receptor 4; more than 10 µM in assay [2]; more than 10 µM in assay [3]; 31.6 µM in [4]; 31 µM in assay [5]; 11 µM and 2 µM at Mu-type opioid receptor.

Regarding `CNC(C)Cc1ccc2c(c1)OCO2` (configuration not stated) [mdma], the Ki in assay [6] was more than 10 µM; in assay [7], more than 10 µM; in assay [8], more than 10 µM; in assay [9] it was more than 10 µM; in [2], more than 10 µM; in assay [10], 8.25 µM. Moreover, the Ki in assay [11], in assay [12], in assay [13], in assay [14] and in assay [15] was more than 10 µM each time.

For `COc1ccc2[nH]c(C)c(CCN(C)C)c2c1` [[2-(5-Methoxy-2-methyl-1H-indol-3-yl)-ethyl]-dimethyl-amine (C2H2O)], the Ki (in assay [6]; in assay [16]; in [17]; on Glutamate receptor 4; in assay [10]; in assay [11]) was more than 10 µM throughout. The inhibitory constant (Ki) in assay [14] and in assay [15] was more than 10 µM each time.

On to `CCc1cc(OC)c(CC(C)N)cc1OC` (configuration not stated), for which the Ki in assay [1] was more than 10 µM.
